The results in this text go back to publication PMC8999625, “Antiviral Effects of ABMA and DABMA against Influenza Virus In Vitro and In Vivo via Regulating the Endolysosomal Pathway and Autophagy” (International Journal of Molecular Sciences, 2022).

Entries after “also recorded” stand apart in the source; their conditions may differ. Where a name gives a salt, the structure may show the parent alone.

The first test has as its system A/HK/2671/2019 (H3N2). Format: cell-based, influenza virus.
Conditions: not given
Turning to `NC12CC3CC(CC(C3)C1)C2` [Amantadine, Amantadine hydrochloride], the “antiviral activity against A/HK/2671/2019 (H3N2)” value is on record as “did not show antiviral activity; also recorded: no significant protection”.

The same test, now with this note: read-out: EC50 ± SD A/HK/2671/2019 (H3N2).
Consider `COc1ccc(Br)cc1CNC12CC3CC(C)(CC(C)(C3)C1)C2` [DABMA, 1,3-dimethyl-1-adamantyl (5-bromo-2-methoxybenzyl) amine], for which the EC50 amounted to 2950 ± 270 nM.

Take `CCOC(=O)C1=C[C@@H](OC(CC)CC)[C@H](NC(C)=O)[C@@H](N)C1` [Oseltamivir, Oseltamivir phosphate]: the EC50 was 1790 ± 640 nM.

Turning to `NC12CC3CC(CC(C3)C1)C2` [Amantadine, Amantadine hydrochloride], the EC50 was > 100000 nM.

As to `NC(=O)c1ncn([C@@H]2O[C@H](CO)[C@@H](O)[C@H]2O)n1` [Ribavirin, ribavirin], the EC50 is 19800 ± 3260 nM.

Consider `COc1ccc(Br)cc1CNC12CC3CC(CC(C3)C1)C2` [ABMA, 1-adamantyl (5-bromo-2-methoxybenzyl) amine], for which the EC50 turned out to be 2830 ± 260 nM.
